Our source for the IC50 and CC50 values is patent US11603349B2, “Anti-fibrotic compounds” (Certa Therapeutics Pty Ltd, priority 2017, dated 2023).

The structures appear in SMILES notation.

Data set [1] concerns TGF-β induced [14C]-proline incorporation in rat mesangial cells. The data set is described as follows: [14C]-proline incorporation assay (collagen biosynthesis). Type of data set: cell-based. Conditions: Rattus norvegicus, Mesangial cell, 44 h, inhibition of TGF-β1 (1 ng/ml) induced [14C]-proline incorporation, IRMC cells.
Data set [2] in a line: MTS tetrazolium reduction cell viability assay. The conditions noted are these: rat, rat mesangial cells (1097/IRMC cells), TGF-β1 stimulated, CC50 (μM), vs 1% DMSO vehicle. For orientation: Tetrazolium assays rely on reduction of a dye to a coloured formazan, in cell work by metabolically active cells.

By IC50 is commonly meant the concentration that inhibits the measured activity by half. One may read the CC50 as the concentration at which the toxic effect on the cells reaches its halfway point. Low readings indicate harm at low concentration, high ones better tolerance by the cells. In data set [1], `C#CCOc1ccc(/C=C/C(=O)Nc2ccccc2C#N)cc1OC` [Example 6, (E)-N-(2-cyanophenyl)-3-(3-methoxy-4-(prop-2-yn-1-yloxy)phenyl)acrylamide] came in with an IC50 of 11.4 µM. In data set [2], this compound showed a CC50 at 48 h greater than 300 µM.

Compound `CN1CCOc2cc(/C=C/C(=O)Nc3ccccc3C(=O)O)ccc21` [Example 110, (E)-2-(3-(4-methyl-3,4-dihydro-2H-benzo[b][1,4]oxazin-7-yl)acrylamido)benzoic acid] showed an IC50 in data set [1] of 13.9 µM. The cytotoxic concentration (CC50) at 48 h in data set [2] is greater than 300 µM.

Turning to `C#CCOc1ccc(/C=C/C(=O)Nc2ccccc2C(=O)NCc2cccnc2)cc1OC` [Example 43, (E)-2-(3-(3-methoxy-4-(prop-2-yn-1-yloxy)phenyl)acrylamido)-N-(pyridin-3-ylmethyl)benzamide], it took 44.6 µM to reach half-maximal inhibition in data set [1] (IC50). The same compound yielded a CC50 at 48 h in data set [2] greater than 300 µM.

Consider `C#CCOc1ccc(/C=C/C(=O)Nc2ccccc2-c2nnco2)cc1OC` [Example 21, (E)-N-(2-(1,3,4-oxadiazol-2-yl)phenyl)-3-(3-methoxy-4-(prop-2-yn-1-yloxy)phenyl)acrylamide], for which the half-maximal inhibitory concentration (IC50) in data set [1] was 25 µM. Also, the CC50 at 48 h in data set [2] is greater than 300 µM.

Compound `C#CCOc1ccc(/C=C/C(=O)Nc2ccccc2-c2cn(C)cn2)cc1OC` [Example 26, (E)-3-(3-methoxy-4-(prop-2-yn-1-yloxy)phenyl)-N-(2-(1-methyl-1H-imidazol-4-yl)phenyl)acrylamide] gave an IC50 in data set [1] of 13.5 µM. In data set [2], this compound came in with a CC50 at 48 h of 190 µM.

Compound `C#CCOc1ccc(/C=C/C(=O)N2CCNc3ccccc32)cc1OC` [Example 11, (E)-1-(3,4-dihydroquinoxalin-1(2H)-yl)-3-(3-methoxy-4-(prop-2-yn-1-yloxy)phenyl)prop-2-en-1-one] had a concentration for half-maximal inhibition (IC50) in data set [1] of 7.07 µM. This compound also came in with a CC50 at 48 h in data set [2] of 104 µM.

As for `C#CCOc1ccc(/C=C/C(=O)N2CCC(C(=O)OC)c3ccccc32)cc1OC` (centres unmarked) [Example 9, methyl (E)-1-(3-(3-methoxy-4-(prop-2-yn-1-yloxy)phenyl)acryloyl)-1,2,3,4-tetrahydroquinoline-4-carboxylate], in data set [1], 1.94 µM corresponded to half-maximal inhibition (IC50). The compound also registered a 50% cytotoxic concentration (CC50) at 48 h in data set [2] of 25.5 µM.

For `C#CCOc1ccc(/C=C/C(=O)Nc2ccccc2-c2nc(C)no2)cc1OC` [Example 28, (E)-3-(3-methoxy-4-(prop-2-yn-1-yloxy)phenyl)-N-(2-(3-methyl-1,2,4-oxadiazol-5-yl)phenyl)acryl-amide], it took 11.6 µM to reach half-maximal inhibition in data set [1] (IC50). In data set [2], this compound came in with a half-maximal cytotoxic concentration (CC50) at 48 h of 146 µM.

`COc1cc(/C=C/C(=O)Nc2ccccc2C(=O)O)ccc1N1CCN(C)CC1` [Example 97, (E)-2-(3-(3-methoxy-4-(4-methylpiperazin-1-yl)phenyl)acrylamido)benzoic acid] returned an IC50 in data set [1] of 46.2 µM. Also, the CC50 at 48 h in data set [2] is greater than 300 µM.

Take `C#CCOc1ccc(/C=C/C(=O)Nc2ccccc2C#N)c(OC2CCNC2)c1OC` (centres unmarked) [Example 82, (E)-N-(2-cyanophenyl)-3-(3-methoxy-4-prop-2-ynoxy-2-pyrrolidin-3-yloxy-phenyl)prop-2-enamide]: it took 3.42 µM to reach half-maximal inhibition in data set [1] (IC50). For the same compound, it took 13.5 µM to reach half-maximal cytotoxicity in data set [2] (CC50 at 48 h).

On to `COc1cc(/C=C/C(=O)Nc2ccccc2C(=O)O)ccc1OCc1ccccn1` [Example 55, (E)-2-(3-(3-methoxy-4-(pyridin-2-ylmethoxy)phenyl)acrylamido)benzoic acid], for which the IC50 in data set [1] is 44.3 µM. This compound returned a cytotoxic concentration (CC50) at 48 h in data set [2] of 86.1 µM.

Compound `C#CCOc1ccc(/C=C/C(=O)Nc2ccccc2C#N)c(OC2CN(C)C2)c1OC` [Example 79, (E)-N-(2-cyanophenyl)-3-[3-methoxy-2-(1-methylazetidin-3-yl)oxy-4-prop-2-ynoxy-phenyl]prop-2-enamide] registered an IC50 in data set [1] of 9.52 µM. This compound displayed a CC50 at 48 h in data set [2] of 23.4 µM.

Take `C#CCOCc1ccc(/C=C/C(=O)Nc2ccccc2C(=O)O)cc1OC` [Example 72, (E)-2-(3-(3-methoxy-4-((prop-2-yn-1-yloxy)methyl)phenyl)acrylamido)benzoic acid]: inhibition in data set [1] was half-maximal at 15 µM (IC50). The CC50 at 48 h in data set [2] is greater than 300 µM.
